Laboratory results published in US8252930B2, “Azaindole derivatives with a combination of partial nicotinic acetyl-choline receptor agonism and dopamine reuptake inhibition” (Solvay Pharmaceuticals B.V., priority 2006, dated 2012).
Structures can show the parent of a compound that is named as a salt. Where two headings read alike, the source gives them in different places.

Experiments:
[1] = biological target: T1, [^3H]-dopamine uptake in rat striatal synaptosomes (Rattus norvegicus, UniProt P23977); test: In vitro [3H]-dopamine uptake in rat striatal synaptosomes; type: biochemical
T1 construct: a crude synaptosomal fraction (P2) was prepared by homogenization and centrifugation; from tissue; host or cells: rat striatum, crude synaptosomal fraction (P2)
T1 sequence (P23977 whole entry): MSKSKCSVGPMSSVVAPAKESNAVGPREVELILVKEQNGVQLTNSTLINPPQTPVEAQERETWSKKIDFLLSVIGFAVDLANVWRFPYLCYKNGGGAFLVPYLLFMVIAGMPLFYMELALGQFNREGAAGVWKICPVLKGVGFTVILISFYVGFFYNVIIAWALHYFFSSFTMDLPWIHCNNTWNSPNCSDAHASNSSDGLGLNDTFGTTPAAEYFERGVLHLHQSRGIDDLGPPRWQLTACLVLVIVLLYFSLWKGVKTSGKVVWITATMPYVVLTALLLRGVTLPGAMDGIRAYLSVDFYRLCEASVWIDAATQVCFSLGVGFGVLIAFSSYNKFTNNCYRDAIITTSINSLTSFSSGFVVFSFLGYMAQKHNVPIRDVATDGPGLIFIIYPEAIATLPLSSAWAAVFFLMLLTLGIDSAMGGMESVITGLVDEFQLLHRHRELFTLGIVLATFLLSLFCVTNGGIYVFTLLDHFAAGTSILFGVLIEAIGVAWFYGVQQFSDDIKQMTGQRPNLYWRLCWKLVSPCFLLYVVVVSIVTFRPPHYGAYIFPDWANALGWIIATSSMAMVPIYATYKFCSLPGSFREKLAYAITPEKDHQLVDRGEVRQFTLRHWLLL
Protocol: Subsequently, [^3H]-dopamine (2×10^−7 M final concentration) was added and incubation was continued for 10 min. [^3H]-dopamine uptake was stopped by filtration and the synaptosomes were washed four times with phosphate buffered saline. The amount of [^3H]-dopamine in the synaptosomes was determined by Betaplate liquid scintillation counting. […] Inhibition of DA uptake was performed in duplicate.

Row | Structure (SMILES) | melting point | also measured
1 | C1=C(c2cc3cccnc3[nH]2)CNCC1 (as salt: HCl) [Compound 25, 2-(1,2,5,6-tetrahydro-pyridin-3-yl)-1H-pyrrolo[2,3-b]pyridine] | > 275 °C (dec.) | 
2 | c1cnc2[nH]c(C3CN4CCC3CC4)cc2c1 (centres unmarked) [Compound 21, 3-(1H-Pyrrolo[2,3-b]pyridin-2-yl)-1-aza-bicyclo[2.2.2]octane] | 190 °C | 
3 | c1cnc2[nH]cc(C3CN4CCC3CC4)c2c1 (centres unmarked) [Compound 16, 3-(1H-Pyrrolo[2,3-b]pyridin-3-yl)-1-aza-bicyclo[2.2.2]octane] | 185 °C | 
4 | c1cnc2[nH]cc(C[C@@H]3CCCN3)c2c1 (stereo in doubt) [Compound 97, (S)-3-Pyrrolidin-2-ylmethyl-1H-pyrrolo[2,3-b]pyridine] |  | IC50 ([1]; read-out: Functional activity re-uptake [^3H]-Dopamine pIC50 (converted)): > 10 µM
5 | CN1CCC[C@H]1Cc1c[nH]c2ncccc12 (stereo in doubt) [Compound 99, (S)-3-(1-Methyl-pyrrolidin-2-ylmethyl)-1H-pyrrolo[2,3-b]pyridine] |  | IC50 [1]: > 10 µM
6 | c1cnc2[nH]c(C3CCCNC3)cc2c1 (centres unmarked) | 144 to 145 °C | 
7 | Clc1ccnc2[nH]c(C3CCCNC3)cc12 (centres unmarked) (as salt: HCl) | > 250 °C (dec.) | 
8 | CN1CCC[C@H]1Cc1cc2cccnc2[nH]1 | 130 to 131 °C | 
